Results as given in article PMC10999543, “Identification of kinase modulators as host-directed therapeutics against intracellular methicillin-resistant Staphylococcus aureus” (Frontiers in Cellular and Infection Microbiology, 2024).
Where two headings read alike, the source gives them in different places.

Assays:
intracellular MRSA = format: cell-based, Staphylococcus aureus; conditions: for %GFP+ rep 1 / z-scoreMRSA+ rep 1: replicate 1; for %GFP+ rep 2 / z-scoreMRSA+ rep 2: replicate 2; for %GFP+ rep 3 / z-scoreMRSA+ rep 3: replicate 3; for z-scoreMRSA+ mean: mean of 3 replicates; as to %GFP+ rep 1: test concentration or dose not given here; as to %GFP+ rep 2: test concentration or dose not given here; as to %GFP+ rep 3: test concentration or dose not given here; as to effect: test concentration or dose not given here; as to z-scoreMRSA+ mean: test concentration or dose not given here; as to z-scoreMRSA+ rep 1: test concentration or dose not given here; as to z-scoreMRSA+ rep 2: test concentration or dose not given here; as to z-scoreMRSA+ rep 3: test concentration or dose not given here
Summary of the method: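 Values are z-scores: GFP-positive HeLa percentage and event count per well against plate statistics, minus the mean DMSO z-score. Wells deviating two-fold from controls were left out of plate means. Infection was at a mean MOI of 6.8, with an overnight compound exposure.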

HeLa cells = experiment: Compound screen by flow cytometry: HeLa cell count as surrogate readout of cell viability (z-scoreHeLa); format: cell-based, human; also: test concentration or dose not given here
Summary of the method: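 The viability surrogate was the count of fixed HeLa cells by flow cytometry, converted to z-scores against DMSO controls with values deviating two-fold excluded. Before counting, cells had been infected with MRSA for 1 h and cleared of extracellular bacteria with gentamicin. They were then exposed overnight to kinase inhibitors in triplicate.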

[1] = PKIS compound screen raw data, MRSA-infected HeLa cells
[2] = Yes/No: effect without cell death
[3] = compound screen, MRSA-infected HeLa cells
[4] = PKIS compound screen, MRSA-infected HeLa cells
[5] = PKIS compound screen, Yes/No call (effect without cell death)
[6] = PKIS compound screen, Yes/No call on z-scoreMRSA+
[7] = PKIS compound screen raw data, HeLa cell count, replicate 1
[8] = PKIS compound screen raw data, HeLa cell count, replicate 2
[9] = PKIS compound screen raw data, HeLa cell count, replicate 3
[10] = PKIS compound screen, HeLa cell count, mean of 3 replicates
[11] = PKIS compound screen, HeLa cell count, replicate 1
[12] = PKIS compound screen, HeLa cell count, replicate 2
[13] = PKIS compound screen, HeLa cell count, replicate 3
[14] = PKIS compound screen, Yes/No call on z-scoreHeLa
[15] = PKIS compound screen, Yes/No call
[16] = PKIS compounds raw data, MRSA-infected HeLa cells
[17] = PKIS compound screen, mean of 3 replicates
[18] = PKIS compound screen, replicate 1
[19] = PKIS compound screen, replicate 2
[20] = PKIS compound screen, replicate 3
[21] = PKIS compounds raw data, replicate 1, HeLa cell count
[22] = PKIS compounds raw data, replicate 2, HeLa cell count
[23] = PKIS compounds raw data, replicate 3, HeLa cell count
[24] = compound screen, HeLa cell count, mean of 3 replicates
[25] = compound screen, HeLa cell count, replicate 1
[26] = compound screen, HeLa cell count, replicate 2
[27] = compound screen, HeLa cell count, replicate 3

| Structure (SMILES) | %GFP+ rep 1 (intracellular MRSA; [1]) | %GFP+ rep 2 (intracellular MRSA; [1]) | %GFP+ rep 3 (intracellular MRSA; [1]) | effect (intracellular MRSA; Yes/No call from z-scoreMRSA+) | hit (intracellular MRSA; [2]) | z-scoreMRSA+ mean (intracellular MRSA; [3]) | z-scoreMRSA+ rep 1 (intracellular MRSA; [3]) | z-scoreMRSA+ rep 2 (intracellular MRSA; [3]) | z-scoreMRSA+ rep 3 (intracellular MRSA; [3]) | z-scoreMRSA+ mean (intracellular MRSA; [4]) | z-scoreMRSA+ rep 1 (intracellular MRSA; [4]) | z-scoreMRSA+ rep 2 (intracellular MRSA; [4]) | z-scoreMRSA+ rep 3 (intracellular MRSA; [4]) | hit (intracellular MRSA; [5]) | effect (intracellular MRSA; [6]) | cell count rep 1 (HeLa cells; [7]) | cell count rep 2 (HeLa cells; [8]) | cell count rep 3 (HeLa cells; [9]) | z-scoreHeLa mean (HeLa cells; [10]) | z-scoreHeLa rep 1 (HeLa cells; [11]) | also measured |
| --- | --- | --- | --- | --- | --- | --- | --- | --- | --- | --- | --- | --- | --- | --- | --- | --- | --- | --- | --- | --- | --- |
| COc1cc2c(Nc3ccc(NC(=O)c4ccccc4)cc3)ncnc2cc1OCCCN1CCOCC1 [GSK301329A] | 25.2% | 24.6% | 21.9% | No | No | 0.13 | -0.0173 | 0.48 | -0.09 |  |  |  |  |  |  |  |  |  |  |  | cell death (HeLa cells): No; cell count rep 1 (HeLa cells; human): 4010; cell count rep 2 (HeLa cells; human): 4052; cell count rep 3 (HeLa cells; human): 5236; z-scoreHeLa mean (HeLa cells; human): -0.15; z-scoreHeLa rep 1 (HeLa cells; human): -0.25; z-scoreHeLa rep 2 (HeLa cells; human): -0.19; z-scoreHeLa rep 3 (HeLa cells; human): -0.00157 |
| CC(C)S(=O)(=O)N1CCN(Cc2ccc3c(c2)nc(NC(=O)c2ccsc2)n3C[C@H](O)c2ccccc2)CC1 [GW635815X] | 12.8% | 14.2% | 14.5% |  |  |  |  |  |  | -1.62 | -1.60 | -1.42 | -1.84 | No | No | 31634 | 26865 | 24254 | 0.52 | 0.24 | z-scoreHeLa rep 2 (HeLa cells; [12]): 0.27; z-scoreHeLa rep 3 (HeLa cells; [13]): 1.04; cell death (HeLa cells; [14]): No |
| Cn1cc(C=C2C(=O)Nc3cccnc32)c2ccccc21 [GW441756X] |  |  |  |  |  |  |  |  |  |  |  |  |  | No |  |  |  |  |  |  | effect (intracellular MRSA; [15]): No; z-scoreMRSA+ mean (intracellular MRSA; PKIS compound screen): -0.68; z-scoreMRSA+ rep 1 (intracellular MRSA; PKIS compound screen): -0.28; z-scoreMRSA+ rep 2 (intracellular MRSA; PKIS compound screen): -0.47; z-scoreMRSA+ rep 3 (intracellular MRSA; PKIS compound screen): -1.30; %GFP+ rep 1 (intracellular MRSA; [16]): 12.3%; %GFP+ rep 2 (intracellular MRSA; [16]): 12.1%; %GFP+ rep 3 (intracellular MRSA; [16]): 11.5%; cell death (HeLa cells; [15]): No; z-scoreHeLa mean (HeLa cells; [17]): 0.63; z-scoreHeLa rep 1 (HeLa cells; [18]): 0.06; z-scoreHeLa rep 2 (HeLa cells; [19]): 0.32; z-scoreHeLa rep 3 (HeLa cells; [20]): 1.49; cell count rep 1 (HeLa cells; [21]): 4844; cell count rep 2 (HeLa cells; [22]): 4695; cell count rep 3 (HeLa cells; [23]): 10080 |
| Cc1cc(O)cc(C)c1/C=C/c1cncc(C(N)=O)c1 [GW435821X] | 14.7% | 15.8% | 16.5% |  |  |  |  |  |  | -0.94 | -1.00 | -0.82 | -1.00 | No | No | 9030 | 26110 | 32002 | -1.55 | -1.68 | z-scoreHeLa rep 2 (HeLa cells; [12]): -1.62; z-scoreHeLa rep 3 (HeLa cells; [13]): -1.36; cell death (HeLa cells; [14]): No |
| CCN(CC)CCOc1ccc(Nc2ncc3cc(-c4c(Cl)cccc4Cl)c(=O)n(C)c3n2)cc1 [SB-601273] | 32.3% | 28.1% | 25.0% | No | No | 1.27 | 1.64 | 1.33 | 0.84 |  |  |  |  |  |  |  |  |  |  |  | cell death (HeLa cells): No; cell count rep 1 (HeLa cells; human): 895; cell count rep 2 (HeLa cells; human): 949; cell count rep 3 (HeLa cells; human): 1208; z-scoreHeLa mean (HeLa cells; human): -2.54; z-scoreHeLa rep 1 (HeLa cells; human): -2.49; z-scoreHeLa rep 2 (HeLa cells; human): -2.58; z-scoreHeLa rep 3 (HeLa cells; human): -2.55 |
| Fc1cc(Cl)ccc1Nc1ccnc2cc(I)ccc12 [GW551191X] | 27.7% | 23.2% | 23.8% | No | No | 0.40 | 0.57 | 0.14 | 0.48 |  |  |  |  |  |  | 6255 | 4849 | 6828 |  |  | cell death (HeLa cells; Yes/No call from z-scoreHeLa): No; z-scoreHeLa mean (HeLa cells; [24]): 0.93; z-scoreHeLa rep 1 (HeLa cells; [25]): 1.37; z-scoreHeLa rep 2 (HeLa cells; [26]): 0.42; z-scoreHeLa rep 3 (HeLa cells; [27]): 1.00 |
| COc1cc(C=NNc2ncnc3c2cnn3-c2ccccc2)ccc1O [GW513184X] |  |  |  | No | No | -0.46 | -0.47 | -0.0654 | -0.85 |  |  |  |  |  |  |  |  |  |  |  | %GFP+ rep 1 (intracellular MRSA; [16]): 11.7%; %GFP+ rep 2 (intracellular MRSA; [16]): 13.3%; %GFP+ rep 3 (intracellular MRSA; [16]): 13.0%; cell count rep 1 (HeLa cells; [21]): 3697; cell count rep 2 (HeLa cells; [22]): 5698; cell count rep 3 (HeLa cells; [23]): 7463; cell death (HeLa cells; Yes/No call from z-scoreHeLa): No; z-scoreHeLa mean (HeLa cells; [24]): 0.11; z-scoreHeLa rep 1 (HeLa cells; [25]): -0.98; z-scoreHeLa rep 2 (HeLa cells; [26]): 1.08; z-scoreHeLa rep 3 (HeLa cells; [27]): 0.24 |
| Fc1cc(Cl)ccc1Nc1ccnc2cc(-c3ccc(CN4CCOCC4)o3)ccc12 [GW560109X] | 14.2% | 18.0% | 17.4% |  |  |  |  |  |  | -0.89 | -1.22 | -0.38 | -1.05 | No | No | 37673 | 25490 | 23726 | 0.75 | 1.27 | effect (intracellular MRSA; [15]): No; z-scoreMRSA+ mean (intracellular MRSA; PKIS compound screen): 0.05; z-scoreMRSA+ rep 1 (intracellular MRSA; PKIS compound screen): 0.36; z-scoreMRSA+ rep 2 (intracellular MRSA; PKIS compound screen): -0.28; z-scoreMRSA+ rep 3 (intracellular MRSA; PKIS compound screen): 0.06; %GFP+ rep 1 (intracellular MRSA; [16]): 28.9%; %GFP+ rep 2 (intracellular MRSA; [16]): 24.6%; %GFP+ rep 3 (intracellular MRSA; [16]): 27.6%; z-scoreHeLa rep 2 (HeLa cells; [12]): 0.037; z-scoreHeLa rep 3 (HeLa cells; [13]): 0.94; cell death (HeLa cells; [15]): No; cell death (HeLa cells; [14]): No; z-scoreHeLa mean (HeLa cells; [17]): 0.33; z-scoreHeLa rep 1 (HeLa cells; [18]): -0.12; z-scoreHeLa rep 2 (HeLa cells; [19]): 0.0321; z-scoreHeLa rep 3 (HeLa cells; [20]): 1.09; cell count rep 1 (HeLa cells; [21]): 5844; cell count rep 2 (HeLa cells; [22]): 6056; cell count rep 3 (HeLa cells; [23]): 7316 |
